Activity calls are given as the source filed them.
Legend:
[1] = biological target: Photoreceptor-specific nuclear receptor (Homo sapiens, UniProt Q9Y5X4); assay type: functional;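 note: potency for compounds that break the NR2E3 corepressor complex and count as activators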
[2] = biological target: Nucleotide-binding oligomerization domain-containing protein 2 (Homo sapiens, UniProt Q9HC29); assay: inhibition of NOD2-driven NF-kB reporter – cell-based, luminescence, uHTS, HEK293 (AID 1566); assay type: functional
Chain of Nucleotide-binding oligomerization domain-containing protein 2 (Q9HC29 whole entry, the tested form may be a part): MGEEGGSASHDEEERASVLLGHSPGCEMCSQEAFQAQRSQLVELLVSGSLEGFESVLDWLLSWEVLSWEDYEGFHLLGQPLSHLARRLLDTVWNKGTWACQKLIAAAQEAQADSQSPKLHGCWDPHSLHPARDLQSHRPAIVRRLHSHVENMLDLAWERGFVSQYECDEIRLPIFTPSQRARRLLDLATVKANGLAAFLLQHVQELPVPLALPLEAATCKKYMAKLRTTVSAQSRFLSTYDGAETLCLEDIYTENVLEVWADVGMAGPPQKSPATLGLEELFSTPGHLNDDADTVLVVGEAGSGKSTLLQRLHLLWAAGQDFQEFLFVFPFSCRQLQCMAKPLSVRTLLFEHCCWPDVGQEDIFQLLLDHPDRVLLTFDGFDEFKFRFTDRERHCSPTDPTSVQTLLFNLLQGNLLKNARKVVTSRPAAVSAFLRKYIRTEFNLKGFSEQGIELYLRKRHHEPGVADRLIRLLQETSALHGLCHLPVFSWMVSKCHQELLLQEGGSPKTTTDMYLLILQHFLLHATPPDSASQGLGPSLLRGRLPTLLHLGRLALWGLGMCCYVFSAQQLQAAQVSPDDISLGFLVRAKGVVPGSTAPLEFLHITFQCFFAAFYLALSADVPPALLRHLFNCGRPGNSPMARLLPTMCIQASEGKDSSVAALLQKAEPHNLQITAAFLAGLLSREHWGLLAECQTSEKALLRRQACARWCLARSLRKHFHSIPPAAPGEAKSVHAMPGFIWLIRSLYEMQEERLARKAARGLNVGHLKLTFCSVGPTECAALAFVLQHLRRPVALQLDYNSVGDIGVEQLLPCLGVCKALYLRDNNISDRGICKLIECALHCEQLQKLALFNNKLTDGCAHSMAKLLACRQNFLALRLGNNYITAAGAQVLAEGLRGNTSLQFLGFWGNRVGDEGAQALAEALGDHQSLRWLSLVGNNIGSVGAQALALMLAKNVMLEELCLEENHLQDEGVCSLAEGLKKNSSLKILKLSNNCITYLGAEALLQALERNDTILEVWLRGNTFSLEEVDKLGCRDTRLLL

[3] = biological target: T1, Replicative DNA helicase DnaB (Mycobacterium tuberculosis, UniProt P9WMR3); assay: DnaB intein splicing inhibitors, dose response, biochemical, cell-free fluorescence (AID 449749); assay type: functional
T1 sequence (P9WMR3 whole entry): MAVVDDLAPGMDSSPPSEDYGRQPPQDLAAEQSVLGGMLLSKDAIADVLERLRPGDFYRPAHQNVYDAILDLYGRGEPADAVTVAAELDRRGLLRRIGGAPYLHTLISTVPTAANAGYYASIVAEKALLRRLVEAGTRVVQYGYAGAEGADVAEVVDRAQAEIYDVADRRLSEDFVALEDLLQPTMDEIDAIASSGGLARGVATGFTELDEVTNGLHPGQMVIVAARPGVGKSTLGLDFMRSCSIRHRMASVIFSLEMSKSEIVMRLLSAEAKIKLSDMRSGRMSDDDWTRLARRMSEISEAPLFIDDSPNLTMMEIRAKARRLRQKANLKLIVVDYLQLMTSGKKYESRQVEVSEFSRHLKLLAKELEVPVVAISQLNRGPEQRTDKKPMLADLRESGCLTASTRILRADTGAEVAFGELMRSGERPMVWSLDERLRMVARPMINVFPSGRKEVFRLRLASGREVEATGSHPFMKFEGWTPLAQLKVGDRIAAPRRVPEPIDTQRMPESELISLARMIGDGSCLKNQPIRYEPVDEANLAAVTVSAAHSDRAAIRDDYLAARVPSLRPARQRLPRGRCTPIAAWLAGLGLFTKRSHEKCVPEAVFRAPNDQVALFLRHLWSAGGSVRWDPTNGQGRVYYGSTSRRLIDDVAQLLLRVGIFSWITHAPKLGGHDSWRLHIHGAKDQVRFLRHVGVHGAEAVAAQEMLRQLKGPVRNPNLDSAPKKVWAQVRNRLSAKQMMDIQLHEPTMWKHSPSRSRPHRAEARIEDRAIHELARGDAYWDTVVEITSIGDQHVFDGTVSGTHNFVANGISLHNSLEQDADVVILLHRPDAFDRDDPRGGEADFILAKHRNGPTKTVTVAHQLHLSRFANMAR

Protein RecA = biological target: T2, Protein RecA (Mycobacterium tuberculosis, UniProt P9WHJ3); assay: Fluorescence Cell-Free Homogeneous Dose Retest to Identify Inhibitors of RecA-Intein Splicing Activity. [Related pubchem assays (depositor defined):AID2097, AID2223, AID489010, AID492950]; assay type: functional
T2 sequence (P9WHJ3 whole entry): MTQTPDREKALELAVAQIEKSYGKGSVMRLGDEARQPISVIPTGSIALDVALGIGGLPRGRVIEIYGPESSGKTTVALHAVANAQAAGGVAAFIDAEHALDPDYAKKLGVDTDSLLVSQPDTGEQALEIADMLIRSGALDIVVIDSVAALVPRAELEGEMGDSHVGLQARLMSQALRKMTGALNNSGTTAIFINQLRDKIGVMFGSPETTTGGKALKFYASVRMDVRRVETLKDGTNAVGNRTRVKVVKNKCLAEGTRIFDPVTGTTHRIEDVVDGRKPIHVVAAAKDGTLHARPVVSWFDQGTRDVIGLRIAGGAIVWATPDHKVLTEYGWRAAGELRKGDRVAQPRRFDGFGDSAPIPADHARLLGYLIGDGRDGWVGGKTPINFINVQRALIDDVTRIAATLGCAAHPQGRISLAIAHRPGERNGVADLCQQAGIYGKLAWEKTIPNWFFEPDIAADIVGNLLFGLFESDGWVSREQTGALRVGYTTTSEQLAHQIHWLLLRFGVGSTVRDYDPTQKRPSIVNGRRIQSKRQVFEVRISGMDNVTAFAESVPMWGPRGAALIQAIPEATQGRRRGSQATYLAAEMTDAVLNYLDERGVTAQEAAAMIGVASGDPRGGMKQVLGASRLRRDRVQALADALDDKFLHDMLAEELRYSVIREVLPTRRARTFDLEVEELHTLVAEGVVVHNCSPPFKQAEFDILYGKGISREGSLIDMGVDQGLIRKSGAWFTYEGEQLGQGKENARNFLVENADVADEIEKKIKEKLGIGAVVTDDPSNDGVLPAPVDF

[4] = biological target: Tyrosyl-DNA phosphodiesterase 2 (Homo sapiens, UniProt O95551); assay: potency against TDP2 phosphodiesterase activity – biochemical, epi absorbance, IC50, dose response (AID 743297)
Chain of Tyrosyl-DNA phosphodiesterase 2 (O95551 whole entry): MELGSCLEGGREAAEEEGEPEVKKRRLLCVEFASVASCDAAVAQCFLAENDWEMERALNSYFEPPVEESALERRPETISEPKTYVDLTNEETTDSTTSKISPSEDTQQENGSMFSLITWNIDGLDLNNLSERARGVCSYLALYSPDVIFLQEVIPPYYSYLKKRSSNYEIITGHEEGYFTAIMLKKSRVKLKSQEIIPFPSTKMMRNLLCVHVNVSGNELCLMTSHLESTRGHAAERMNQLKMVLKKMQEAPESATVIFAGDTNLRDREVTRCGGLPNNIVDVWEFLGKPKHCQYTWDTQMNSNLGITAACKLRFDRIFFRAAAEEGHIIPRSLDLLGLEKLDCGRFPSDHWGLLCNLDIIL

[5] = biological target: Protein kinase C theta type (Homo sapiens, UniProt Q04759); assay: Navigating the Kinome. Panel member name: PRKCQ; assay type: functional
[6] = biological target: Serine/threonine-protein kinase TBK1 (Homo sapiens, UniProt Q9UHD2); assay: Navigating the Kinome. Panel member name: TBK1; assay type: functional
[7] = biological target: Tyrosine-protein kinase receptor TYRO3 (Homo sapiens, UniProt Q06418); assay type: functional;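 note: TYRO3 value obtained as one member of a kinome-wide profiling panel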
[8] = biological target: Tyrosine-protein kinase ITK/TSK (Homo sapiens, UniProt Q08881); assay type: functional;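 note: affinity for ITK measured as one member of a broad kinase panel profiling binding across the kinome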
[9] = biological target: Proto-oncogene tyrosine-protein kinase ROS (Homo sapiens, UniProt P08922); assay type: functional;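 note: ROS1 tested as one member of a kinome-wide kinase panel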
[10] = biological target: MAP/microtubule affinity-regulating kinase 3 (Homo sapiens, UniProt P27448); assay type: functional;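 note: MARK3 affinity measured as one member of a kinome panel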
[11] = biological target: Proto-oncogene tyrosine-protein kinase Src (Homo sapiens, UniProt P12931); assay type: functional;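 note: SRC entry within a kinome-wide kinase profiling panel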
Misshapen-like kinase 1 = Misshapen-like kinase 1 (Homo sapiens, UniProt Q8N4C8); assay type: functional;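 note: kinome panel screen with MINK as the panel member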
Chain of Misshapen-like kinase 1 (Q8N4C8 whole entry): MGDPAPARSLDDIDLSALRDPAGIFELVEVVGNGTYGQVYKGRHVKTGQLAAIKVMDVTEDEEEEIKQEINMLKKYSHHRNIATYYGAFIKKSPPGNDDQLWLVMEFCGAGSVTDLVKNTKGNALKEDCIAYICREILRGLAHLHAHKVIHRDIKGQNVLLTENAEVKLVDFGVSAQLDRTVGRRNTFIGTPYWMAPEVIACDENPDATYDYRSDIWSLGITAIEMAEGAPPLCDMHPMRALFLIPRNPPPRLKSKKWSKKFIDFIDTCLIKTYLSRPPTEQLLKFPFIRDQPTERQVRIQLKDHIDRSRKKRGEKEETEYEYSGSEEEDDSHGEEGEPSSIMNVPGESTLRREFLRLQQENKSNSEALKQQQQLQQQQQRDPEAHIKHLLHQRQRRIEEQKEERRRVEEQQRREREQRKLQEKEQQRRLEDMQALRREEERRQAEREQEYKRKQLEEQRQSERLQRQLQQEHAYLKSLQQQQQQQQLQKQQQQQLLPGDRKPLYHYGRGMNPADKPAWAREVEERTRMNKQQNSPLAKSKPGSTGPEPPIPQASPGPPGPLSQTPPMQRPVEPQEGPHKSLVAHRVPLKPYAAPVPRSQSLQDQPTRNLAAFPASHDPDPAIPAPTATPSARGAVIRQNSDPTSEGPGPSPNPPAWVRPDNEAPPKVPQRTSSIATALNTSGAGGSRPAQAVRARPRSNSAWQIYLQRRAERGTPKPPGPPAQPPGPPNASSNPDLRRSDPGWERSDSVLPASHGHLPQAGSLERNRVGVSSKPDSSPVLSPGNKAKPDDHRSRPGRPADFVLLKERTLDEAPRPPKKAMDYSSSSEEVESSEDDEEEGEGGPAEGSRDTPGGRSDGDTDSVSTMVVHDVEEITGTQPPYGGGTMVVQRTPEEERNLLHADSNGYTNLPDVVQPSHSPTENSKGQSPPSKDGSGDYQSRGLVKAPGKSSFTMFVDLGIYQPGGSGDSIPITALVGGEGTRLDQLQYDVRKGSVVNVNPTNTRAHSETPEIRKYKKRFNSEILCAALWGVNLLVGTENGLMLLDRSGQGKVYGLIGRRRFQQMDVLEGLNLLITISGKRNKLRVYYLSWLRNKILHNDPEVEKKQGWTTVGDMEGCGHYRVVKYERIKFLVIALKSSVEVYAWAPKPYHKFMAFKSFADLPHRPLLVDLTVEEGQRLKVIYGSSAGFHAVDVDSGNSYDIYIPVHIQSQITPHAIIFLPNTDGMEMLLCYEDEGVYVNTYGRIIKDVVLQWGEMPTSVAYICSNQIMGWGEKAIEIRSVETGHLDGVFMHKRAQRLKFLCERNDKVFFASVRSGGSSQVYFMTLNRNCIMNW

[12] = biological target: Serine/threonine-protein kinase Nek4 (Homo sapiens, UniProt P51957); assay type: functional
[13] = biological target: Dual specificity tyrosine-phosphorylation-regulated kinase 4 (Homo sapiens, UniProt Q9NR20); assay type: functional
Chain of Dual specificity tyrosine-phosphorylation-regulated kinase 4 (Q9NR20 whole entry): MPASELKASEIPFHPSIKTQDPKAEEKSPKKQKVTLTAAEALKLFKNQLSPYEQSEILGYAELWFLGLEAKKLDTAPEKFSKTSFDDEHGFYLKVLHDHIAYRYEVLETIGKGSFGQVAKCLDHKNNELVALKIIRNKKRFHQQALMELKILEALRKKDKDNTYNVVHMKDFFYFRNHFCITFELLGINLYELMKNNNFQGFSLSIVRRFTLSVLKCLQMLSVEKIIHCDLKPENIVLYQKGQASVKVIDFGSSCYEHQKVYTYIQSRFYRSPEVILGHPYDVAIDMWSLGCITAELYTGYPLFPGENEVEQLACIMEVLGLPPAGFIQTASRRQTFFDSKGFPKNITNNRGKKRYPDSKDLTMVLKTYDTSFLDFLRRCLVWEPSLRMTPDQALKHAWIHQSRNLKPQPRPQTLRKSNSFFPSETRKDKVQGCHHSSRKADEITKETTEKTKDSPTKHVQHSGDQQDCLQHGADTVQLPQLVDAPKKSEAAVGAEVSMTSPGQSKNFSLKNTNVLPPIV

[14] = biological target: Protein kinase C iota type (Homo sapiens, UniProt P41743); assay type: functional;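 note: measured within a kinome-wide kinase panel, PRKCI as panel member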
[15] = biological target: Vascular endothelial growth factor receptor 3 (Homo sapiens, UniProt P35916); assay type: functional;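 note: value from a kinome-wide profiling panel, with FLT4 as the panel member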
Chain of Vascular endothelial growth factor receptor 3 (P35916 whole entry): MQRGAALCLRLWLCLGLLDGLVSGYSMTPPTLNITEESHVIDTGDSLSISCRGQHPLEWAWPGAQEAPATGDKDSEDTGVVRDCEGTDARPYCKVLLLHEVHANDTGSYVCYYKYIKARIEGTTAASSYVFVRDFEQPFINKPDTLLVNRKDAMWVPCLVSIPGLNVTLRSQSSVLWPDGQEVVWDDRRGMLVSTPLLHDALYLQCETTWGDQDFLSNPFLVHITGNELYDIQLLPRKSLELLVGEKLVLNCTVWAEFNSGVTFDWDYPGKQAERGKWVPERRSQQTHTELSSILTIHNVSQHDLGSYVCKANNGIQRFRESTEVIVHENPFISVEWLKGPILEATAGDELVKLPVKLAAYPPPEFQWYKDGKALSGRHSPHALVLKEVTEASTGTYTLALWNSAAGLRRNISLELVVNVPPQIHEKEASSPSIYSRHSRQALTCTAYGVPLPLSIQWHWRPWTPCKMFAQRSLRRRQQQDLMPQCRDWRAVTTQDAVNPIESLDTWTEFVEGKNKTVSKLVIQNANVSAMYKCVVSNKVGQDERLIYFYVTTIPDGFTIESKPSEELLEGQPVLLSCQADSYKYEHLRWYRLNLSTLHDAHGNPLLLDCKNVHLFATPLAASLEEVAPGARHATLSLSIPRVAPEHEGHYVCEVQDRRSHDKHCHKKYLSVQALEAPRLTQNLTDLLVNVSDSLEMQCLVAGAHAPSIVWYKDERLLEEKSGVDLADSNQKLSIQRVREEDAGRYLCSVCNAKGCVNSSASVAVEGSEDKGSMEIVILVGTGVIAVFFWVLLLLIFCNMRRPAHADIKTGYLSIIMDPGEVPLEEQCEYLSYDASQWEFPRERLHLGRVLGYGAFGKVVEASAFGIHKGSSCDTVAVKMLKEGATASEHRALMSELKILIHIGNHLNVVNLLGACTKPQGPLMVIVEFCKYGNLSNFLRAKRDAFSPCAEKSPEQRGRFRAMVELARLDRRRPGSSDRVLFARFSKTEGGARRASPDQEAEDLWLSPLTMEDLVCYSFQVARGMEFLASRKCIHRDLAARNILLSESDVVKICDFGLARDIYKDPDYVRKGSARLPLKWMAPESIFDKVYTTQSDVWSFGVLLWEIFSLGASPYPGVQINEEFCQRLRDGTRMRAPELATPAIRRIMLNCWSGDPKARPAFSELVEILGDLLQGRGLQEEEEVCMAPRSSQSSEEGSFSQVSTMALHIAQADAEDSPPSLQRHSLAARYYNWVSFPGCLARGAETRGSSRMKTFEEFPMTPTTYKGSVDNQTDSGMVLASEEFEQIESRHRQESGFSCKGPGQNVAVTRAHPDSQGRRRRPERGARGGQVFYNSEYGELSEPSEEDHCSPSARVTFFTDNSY

[16] = biological target: 3-phosphoinositide-dependent protein kinase 1 (Homo sapiens, UniProt O15530); assay type: functional;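 note: value comes from the Navigating the Kinome panel, PDPK1 member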
[17] = biological target: Mitogen-activated protein kinase 12 (Homo sapiens, UniProt P53778); assay type: functional;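 note: measured as one member of a kinome-wide kinase profiling panel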
[18] = Potency on glucagon-like peptide 1 release, dose-response in NCI-H716 cell line, half maximal inhibitory concentration (AID 1117344); assay type: functional, cell-based

Chain of Photoreceptor-specific nuclear receptor (Q9Y5X4 whole entry, the tested form may be a part): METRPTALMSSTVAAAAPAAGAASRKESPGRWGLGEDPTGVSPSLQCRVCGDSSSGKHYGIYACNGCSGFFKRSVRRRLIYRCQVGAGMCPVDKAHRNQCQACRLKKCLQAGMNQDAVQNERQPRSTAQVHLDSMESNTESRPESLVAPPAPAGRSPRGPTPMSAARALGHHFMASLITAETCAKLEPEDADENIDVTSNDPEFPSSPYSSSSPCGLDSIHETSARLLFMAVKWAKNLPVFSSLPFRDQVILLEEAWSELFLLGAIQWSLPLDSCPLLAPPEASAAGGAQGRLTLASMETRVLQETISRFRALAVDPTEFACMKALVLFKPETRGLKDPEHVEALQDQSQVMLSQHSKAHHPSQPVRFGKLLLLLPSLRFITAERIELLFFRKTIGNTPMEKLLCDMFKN

| SMILES | IC50 [1] | EC50 [2] | AC50 [3] | EC50 (Protein RecA) | IC50 [4] | Ki [5] | Ki [6] | Ki [7] | Ki [8] | Ki [9] | Ki [10] | Ki [11] | Ki (Misshapen-like kinase 1) | Ki [12] | Ki [13] | Ki [14] | Ki [15] | Ki [16] | Ki [17] | IC50 [18] |
| --- | --- | --- | --- | --- | --- | --- | --- | --- | --- | --- | --- | --- | --- | --- | --- | --- | --- | --- | --- | --- |
| O=C1C=C(N2CCOCC2)c2ccccc2C1=O | > 39.8 µM (not active) | 13.3 µM (active) | 1.05 µM (active) | 0.15 µM (active) | 2.55 µM (active) | – | – | – | – | – | – | – | – | – | – | – | – | – | – | – |
| N#Cc1ccc2[nH]c(O)c(-c3ccc(CN4CCOCC4)cn3)c2c1 [AZD-1080] | – | – | – | – | – | > 2.51 µM (inactive) | > 3.16 µM (inactive) | > 2.51 µM (inactive) | > 1.58 µM (inactive) | > 2 µM (inactive) | > 6.31 µM (inactive) | > 2 µM (inactive) | 6.31 µM (active) | > 6.31 µM (inactive) | > 7.94 µM (inactive) | > 5.01 µM (inactive) | > 6.31 µM (inactive) | > 3.98 µM (inactive) | > 6.31 µM (inactive) | – |
| CCc1oc2ccccc2c1C(=O)c1cc(Br)c(O)c(Br)c1 [BENZBROMARONE] | > 39.8 µM (not active) | – | 2.75 µM (active) | 11.5 µM (active) | – | – | – | – | – | – | – | – | – | – | – | – | – | – | – | > 40 µM (inactive) |
